In patent publication EP4541891A1, “NOVEL LRP1-BINDING PEPTIDE” (Ichimaru Pharcos Co., Ltd., priority 2022, dated 2025):
Values belong to the molecule of their own block, whether it stands above or below them. Bridge positions count the residues as written; N and C are the ends. Square brackets hold non-standard residues; d marks the D form. Ends that are not written are not given here. Peptide text beside a SMILES is read from it. * marks the point of attachment. 5FAM = O=C1OC2(c3ccc(O)cc3Oc3cc(O)ccc32)c2ccc(C(=O)*)cc21; Biotin = O=C1N[C@H]2[C@H](CS[C@H]2CCCCC(=O)*)N1; Hyp = O=C(O)[C@@H]1C[C@@H](O)CN1; Nle = CCCC[C@H](N)C(=O)O; Aib = CC(C)(N)C(=O)O

Assays:
[1] = system: LRP1 cluster 2-Fc chimeric proteins; test: ELISA binding test of biotin-labeled peptides; conditions: biotinylated peptide 1,000 nM to 1.4 nM
Description: (§1) To evaluate the binding activity of the peptides to LRP1, an ELISA-based binding assay was constructed. The ELISA method will be briefly described below. First, a goat antihuman IgG-Fcγ polyclonal antibody (Catalog No. 109-0005-008, manufactured by Jackson Immuno Research) was added to a 96-well Maxisorp plate (Catalog No. 439454, manufactured by Nunc) at 1 µg/50 µL/well using D-PBS, followed by coating overnight at 4°C. Then, 0.5% BSA/D-PBS was further added at 300 µL/well, and blocking was carried out at room temperature for 30 minutes. After washing the plate with 0.1% Tween 20/D-PBS, LRP1 recombinant proteins, namely, LRP1 cluster 2-Fc chimeric proteins (Catalog No. 2368-L2-050, manufactured by R & D Systems), LRP1 cluster 3-Fc chimeric proteins (Catalog No. 48248-L3-050, manufactured by R & D Systems), or LRP1 cluster 4-Fc chimeric proteins (Catalog No. 5395-L4-050, manufactured by R & D Systems), were added at 100 ng/50 µL/well using 0.5% BSA/D-PBS, and allowed to react with the coated antibodies at room temperature for 30 minutes. After washing the plate with 0.1% Tween 20/PBS, Sequences 45 and 46, which were biotinylated peptides, were prepared at an arbitrary concentration using 0.5% BSA/D-PBS, and added at 50µL/well. After causing a reaction at room temperature for 30 minutes, the plate was washed with 0.1% Tween 20/D-PBS. Sequences 45 and 46 bound to the LRP1 recombinant proteins captured on the plate were detected with SA-HRP (Catalog No. ab7403, manufactured by Abeam). For quantification of HRP, TMB ELISA Substrate Solution (Catalog No. 34028, manufactured by Thermo Fisher) was used to measure absorbance at 450 nm.

[2] = system: LRP1 cluster 3-Fc chimeric proteins; test: ELISA binding test of biotin-labeled peptides; conditions: biotinylated peptide 1,000 nM to 1.4 nM
Description: as §1

[3] = system: LRP1 cluster 4-Fc chimeric proteins; test: ELISA binding test of biotin-labeled peptides; conditions: for binding to the LRP1 cluster 4-Fc chimeric proteins: biotinylated peptide 1,000 nM to 1.4 nM; for EC50: biotinylated peptide, SA-HRP detection, absorbance at 450 nm, n = 4
Description: as §1

[4] = system: LRP1 cluster 4-Fc chimeric proteins; test: Competitive binding assay by ELISA against Sequence 46; conditions: for inhibitory activity: peptide 2,000 nM versus Sequence 46 (500 nM), time point not stated
Description: (§2) For comparison between the peptide of Sequence 1 with amino acid substitutions and the peptide of Sequence 2 in terms of the LRP1 binding activity and the resistance to protease degradation, a competitive binding assay by ELISA shown in FIG. 2 was constructed. Immediately (zero hour) or 24 hours after the mixing of the peptide of Sequence 2 or the amino acid-substituted peptide with mouse plasma at 37°C, the mixture was diluted to sufficiently lower the plasma concentration to any desired final concentration, and mixed with Sequence 46 (500 nM). This mixture was subjected to the competitive binding assay described above. The binding of Sequence 46 to the LRP1 cluster 4-Fc chimera proteins competes with the binding of Sequence 2 or the amino acid-substituted peptide to the LRP1 cluster 4-Fc chimera proteins, and thus is inhibited depending on the concentration of Sequence 2 or the amino acid-substituted peptide. That is, the binding activity of Sequence 2 or the amino acid-substituted peptide to the LRP1 cluster 4-Fc chimera proteins is detected as competitive inhibitory activity against the binding of Sequence 46. Regarding the binding value of Sequence 46 to the wells in which the LRP1 cluster 4-Fc chimeric proteins were not captured as 100% inhibitory activity and the binding value of Sequence 46 to the wells in which Sequence 2 or the amino acid-substituted peptide was not added as 0% inhibitory activity, the inhibitory activity values of Sequence 2 and the amino acid-substituted peptide were calculated in %.
Sequence 2 incubated with plasma for zero hour inhibited the binding of Sequence 46 in a concentration-dependent manner. […] However, the binding of Sequence 46 (500 nM) in wells loaded with 2,000 nM equivalent Sequence 2 averaged 50.6%.
Immediately or 24 hours after Sequences 1 to 44 were mixed with mouse plasma at 37°C, the mixtures were diluted to sufficiently lower the plasma concentration to a final concentration of 2,000 nM, and mixed with Sequence 46 (500 nM). The obtained mixtures were subjected to the above-described competitive binding assay. […] Other sequences tended to have diminished inhibitory activities.

[5] = Resistance to protease degradation in mouse plasma, read out by competitive binding ELISA; type: in vitro ADME; conditions: 37°C, inferred from loss of inhibitory activity
Description: as §2, with “The binding of Sequence 46 to the LRP1 cluster 4-Fc chimera proteins competes with the binding of Sequence 2 or the amino acid-substituted peptide to the LRP1 cluster 4-Fc chimera proteins, and thus is inhibited depending on the concentration of Sequence 2 or the amino acid-substituted peptide.” left out, “%. […]” for “%.”

[6] = target: LRP1 cluster 4-Fc chimeric proteins (UniProt Q07954); test: competitive ELISA, LRP1 cluster 4-Fc captured; peptide 2,000 nM against biotin-Sequence 46 500 nM
[7] = target: LRP1 cluster 4-Fc chimeric proteins (UniProt Q07954); test: competitive ELISA, LRP1 cluster 4-Fc captured; Sequence 2 at 500 nM (zero hour in mouse plasma) against biotin-Sequence 46 500 nM
[8] = target: LRP1 cluster 4-Fc chimeric proteins (UniProt Q07954); test: competitive ELISA, LRP1 cluster 4-Fc captured; Sequence 2 at 2,000 nM equivalent after 24 h in mouse plasma at 37 C (about 75% degraded) against biotin-Sequence 46 500 nM
[9] = target: LRP1 cluster 4-Fc chimeric proteins (UniProt Q07954); test: ELISA, LRP1 cluster 4-Fc captured, biotin peptide detected with SA-HRP

Sequence of UniProt Q07954 (Q07954 3293-3783, stated change not applied): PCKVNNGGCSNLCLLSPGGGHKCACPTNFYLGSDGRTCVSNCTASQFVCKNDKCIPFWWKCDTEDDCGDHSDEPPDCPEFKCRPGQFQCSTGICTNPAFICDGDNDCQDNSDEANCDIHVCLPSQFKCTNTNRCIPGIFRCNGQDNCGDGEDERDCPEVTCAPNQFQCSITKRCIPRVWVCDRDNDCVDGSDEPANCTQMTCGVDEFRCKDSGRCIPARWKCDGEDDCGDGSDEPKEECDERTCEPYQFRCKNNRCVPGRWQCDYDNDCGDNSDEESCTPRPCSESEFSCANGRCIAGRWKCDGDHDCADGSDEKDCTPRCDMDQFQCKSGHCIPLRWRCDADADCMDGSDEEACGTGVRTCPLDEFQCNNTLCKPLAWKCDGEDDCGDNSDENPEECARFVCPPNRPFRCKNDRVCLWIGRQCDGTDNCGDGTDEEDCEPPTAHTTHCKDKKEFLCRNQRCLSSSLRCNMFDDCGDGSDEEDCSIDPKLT

- binding to the LRP1 cluster 2-Fc chimeric proteins [1]: little or no binding
- binding to the LRP1 cluster 3-Fc chimeric proteins [2]: little or no binding
- EC50 [3]: 11 nM
Molecule: CCCC[C@@H]1NC(=O)[C@H](CCC(=O)O)NC(=O)[C@H](C)NC(=O)[C@H](CC(C)C)NC(=O)[C@H](CCCC)NC(=O)[C@H](Cc2ccc(O)cc2)NC(=O)[C@H](CCCCN)NC(=O)[C@H](Cc2ccc(O)cc2)NC(=O)[C@H]([C@@H](C)O)NC(=O)[C@@H](NC(=O)[C@@H]2CCCN2C(=O)[C@@H](NC(=O)CNC(=O)[C@H](CCCCNC(=O)CCCC[C@@H]2SC[C@@H]3NC(=O)N[C@@H]32)NC(C)=O)[C@@H](C)O)CSSC[C@@H](C(=O)O)NC1=O [Sequence 46, Ac-Lys(Biotin)-Gly-Thr-Pro-c(Cys-Thr-Tyr-Lys-Tyr-Nle-Leu-Ala-Glu-Nle-Cys)-OH] (Ac-K(Biotin)GTPCTYKY[Nle]LAE[Nle]C-OH; disulfide 5-15)
- binding to the LRP1 cluster 4-Fc chimeric proteins [3]: selectively and in a peptide concentration-dependent manner

- inhibitory activity [4]: 79.4%
- binding of Sequence 46 (500nM) ([4]; wells loaded with 2,000 nM equivalent Sequence 2, incubated with mouse plasma for 24 hours at 37°C, average): 50.6%
- binding of Sequence 46 (500nM) ([4]; wells with 500 nM Sequence 2, incubated with mouse plasma for zero hour, n = 4, average): 52.4%
- degraded during the 24-hour incubation with the mouse plasma [5]: approximately 75%
Molecule: CCCC[C@@H]1NC(=O)[C@H](CCC(=O)O)NC(=O)[C@H](C)NC(=O)[C@H](CC(C)C)NC(=O)[C@H](CCCC)NC(=O)[C@H](Cc2ccc(O)cc2)NC(=O)[C@H](CCCCN)NC(=O)[C@H](Cc2ccc(O)cc2)NC(=O)[C@H]([C@@H](C)O)NC(=O)[C@@H](NC(=O)[C@@H]2CCCN2C(=O)[C@@H](NC(=O)CNC(=O)[C@H](CCCCNC(=O)c2ccc3c(c2)C(=O)OC32c3ccc(O)cc3Oc3cc(O)ccc32)NC(C)=O)[C@@H](C)O)CSSC[C@@H](C(=O)O)NC1=O [Sequence 2, Ac-Lys(5FAM)-Gly-Thr-Pro-c(Cys-Thr-Tyr-Lys-Tyr-Nle-Leu-Ala-Glu-Nle-Cys)-OH] (Ac-K(5FAM)GTPCTYKY[Nle]LAE[Nle]C-OH; disulfide 5-15)

Molecule: Ac-K(Biotin)GTPCTYKY[Nle]LAE[Nle]C-OH (cysteine pairing not given here) [Sequence 45]
- binding to the LRP1 cluster 2-Fc chimeric proteins [1]: little or no binding
- binding to the LRP1 cluster 3-Fc chimeric proteins [2]: little or no binding
- binding to the LRP1 cluster 4-Fc chimeric proteins [3]: selectively and in a peptide concentration-dependent manner
- EC50 [3]: 10.5 nM

- inhibitory activity [4]: 91.9%
Molecule: CCCC[C@@H]1NC(=O)[C@H](CCC(=O)O)NC(=O)[C@H](C)NC(=O)[C@H](CC(C)C)NC(=O)[C@H](CCCC)NC(=O)[C@H](Cc2ccc(O)cc2)NC(=O)[C@H](CCCCN)NC(=O)[C@H](Cc2ccc(O)cc2)NC(=O)[C@H]([C@@H](C)O)NC(=O)[C@H](NC(=O)[C@@H]2CCCN2C(=O)[C@@H](NC(=O)CNC(=O)[C@H](CCCCNC(=O)c2ccc3c(c2)C(=O)OC32c3ccc(O)cc3Oc3cc(O)ccc32)NC(C)=O)[C@@H](C)O)CSSC[C@@H](C(=O)O)NC1=O [Sequence 6, Ac-Lys(5FAM)-Gly-Thr-Pro-c(^DCys-Thr-Tyr-Lys-Tyr-Nle-Leu-Ala-Glu-Nle-Cys)-OH] (Ac-K(5FAM)GTP[dC]TYKY[Nle]LAE[Nle]C-OH; disulfide 5-15)

- inhibitory activity (%) [6]: 79.1%
B1: SEQUENCE 19 (peptide)
peptide: Ac-K(5FAM)GTPC[Hyp]YKY[Nle]LAE[Nle]C
modifications: disulfide 5-15

- inhibitory activity (%) [6]: 79.4%
- binding of Sequence 46 (%) in the presence of the peptide [7]: 52.4%
- binding of Sequence 46 (%) in the presence of the peptide [8]: 50.6%
B2: SEQUENCE 2 (peptide)
peptide: Ac-K(5FAM)GTPCTYKY[Nle]LAE[Nle]C
modifications: disulfide 5-15

- inhibitory activity (%) [6]: 82%
B3: SEQUENCE 34 (peptide)
peptide: Ac-K(5FAM)GTPCTYKY[Nle]L[Aib]E[Nle]C
modifications: disulfide 5-15

- inhibitory activity (%) [6]: 77.4%
B4: SEQUENCE 24 (peptide)
peptide: Ac-K(5FAM)GTPCTYRY[Nle]LAE[Nle]C
modifications: disulfide 5-15

- inhibitory activity (%) [6]: 91.9%
B5: SEQUENCE 6 (peptide)
peptide: Ac-K(5FAM)GTP[dC]TYKY[Nle]LAE[Nle]C
modifications: disulfide 5-15

- inhibitory activity (%) [6]: 85.8%
B6: SEQUENCE 9 (peptide)
peptide: Ac-K(5FAM)GTPCTYKY[Nle]LAE[Nle][dC]
modifications: cysteine pairing not given here

- inhibitory activity (%) [6]: 83.5%
B7: SEQUENCE 43 (peptide)
peptide: Ac-K(5FAM)GTPCTYKY[Nle]LAE[Nle]PC
modifications: disulfide 5-16

- EC50 [9]: 11 nM
B8: SEQUENCE 46 (peptide)
peptide: Ac-K(Biotin)GTPCTYKY[Nle]LAE[Nle]C
modifications: disulfide 5-15

- EC50 [9]: 10.5 nM
B9: SEQUENCE 45 (peptide)
peptide: Ac-K(Biotin)GTPCTYKY[Nle]LAE[Nle]C
modifications: cysteine pairing not given here

- inhibitory activity (%) [6]: 70.7%
B10: SEQUENCE 1 (peptide)
peptide: Ac-K(5FAM)GTPCTYKY[Nle]LAE[Nle]C
modifications: cysteine pairing not given here

- inhibitory activity (%) [6]: 87.6%
B11: SEQUENCE 7 (peptide)
peptide: Ac-K(5FAM)GTP[dC]TYKY[Nle]LAE[Nle]C
modifications: bridge 5-15 via S‑C‑S (methylene)
